Measurements taken from patent US5135943A, “1H-imidazole derivative compounds and pharmaceutical compositions containing the same” (priority 1984, dated 1992).
Converted amounts (≈) assume the structure as drawn. Like-named read-outs stand apart in the source and are kept apart here.

Tests used:
16 microorganisms = assay: Geometric mean of all MIC measurements, comparative in vitro testing; assay type: cell-based; details: 48 h, SZ vs M4, reading time 48 h; read-out: Geometric means of MIC
Experimental: (§1) Minimum Inhibitory Concentrations (MICS) of Sertaconazole were also measured in comparison to four of the compounds described in the Martin Patent, including a compound, referred to herein as Martin Compound 1, which has the same structure as Sertaconazole, expect that the sulfur in the benzothiophene ring is replaced by an oxygen.
(§2) The results of comparative in vitro testing of Sertaconazole and these four Martin compounds are shown in the following Table II against 16 microorganisms. The reading time is the time interval from the time of inoculation to the time of measurement.

[1] = Acute toxicity in Swiss mice i.p.; details: mouse, in vivo, ip
Source text: Such signs included convulsions and Straub tail(vertical righting of the tail).

C. albicans 32 = assay: MIC, comparative in vitro testing against Martin compounds; assay type: cell-based; details: Candida albicans, 32; YNB medium, reading time 48 h; SZ vs M4; read-out: MIC
Experimental: as §1, §2

C. pseudotropicalis 21 = assay: as above; assay type: cell-based; details: Kluyveromyces marxianus, 21; Sabouraud medium, reading time 48 h; SZ vs M4; read-out: MIC
Experimental: as §1, §2

C. albicans ATCC E-10231 = assay: as above; assay type: cell-based; details: Candida albicans, ATCCE10231; Casitone medium, reading time 48 h; SZ vs M4; read-out: MIC
Experimental: as §1, §2

C. krusei 24 = assay: as above; assay type: cell-based; details: Pichia kudriavzevii, 24, 48 h, reading time 48 h, SZ vs M4, read-out: MIC
Experimental: as §1, §2

C. parapsilosis 19 = assay: as above; assay type: cell-based; details: 19, 48 h, reading time 48 h, SZ vs M4
Experimental: as §1, §2

C. albicans 14 = assay: as above; assay type: cell-based; details: Candida albicans, 14, 48 h, Casitone medium, reading time 48 h; SZ vs M4
Experimental: as §1, §2

C. tropicalis 25 = assay: as above; assay type: cell-based; details: Candida tropicalis, 25, 48 h, YNB medium, reading time 48 h; SZ vs M4
Experimental: as §1, §2

C. stellatoidea 36232 = assay: as above; assay type: cell-based; details: Candida albicans, 36232, 48 h, reading time 48 h, SZ vs M4
Experimental: as §1, §2

C. albicans 15 = assay: as above; assay type: cell-based; details: Candida albicans, 15, 48 h, Casitone medium, reading time 48 h; SZ vs M4
Experimental: as §1, §2

C. albicans 31 = assay: as above; assay type: cell-based; details: Candida albicans, 31; YNB medium, reading time 48 h; SZ vs M4; read-out: MIC
Experimental: as §1, §2

C. guillermondii = assay: as above; assay type: cell-based; details: 48 h, reading time 48 h, SZ vs M4, read-out: MIC
Experimental: as §1, §2

Candida albicans [2] = assay: MIC by two-fold dilution, Candida albicans; assay type: cell-based
Source text: (§3) A number of compounds with antimycotic and/or fungicidal properties, which are useful in pharmaceutical compositions, are currently known. These include the commercially successful Miconazole having the formula II [drawing 2] Miconazole has a structure chemically similar to the 1H-imidazole derivative compounds of the invention. Miconazole is effective against a number of yeasts, dermatophytes and fungi. This effectiveness can be measured by culturing these microorganisms in vitro and applying a preparation containing the antimycotic compound, Miconazole. The results of this type of in vitro experiment is expressed in terms of the Minimum Inhibitory Concentration (MIC), i.e. the minimum concentration which inhibits the growth of the microorganism. For example, the MIC for Miconazole against a particular Candida albicans strain is found to be 10.7 micrograms/milliliter. The effectiveness of Miconazole as an antimycotic compound is measured in vivo by applying a suspension containing the drug to the skin of a number of animals and measuring the proportion of animals on which growth of the microorganism is inhibited as a function of time. Typically, after 25 days, about 1/4 of the animals were cured, when treated with a cream containing 2 % by weight Miconazole. Of course, any pharmaceutical preparation for treating a disease in a human must satisfy certain toxicity requirements. […] Toxicity tests have been performed on the IH-imidazole derivative compounds of the invention and on Miconazole and other known compounds having antimycotic properties. In toxicity tests the LD50 (the dose at which 50 % mortality occurs) is measured.
(§4) Minimum Inhibitory Concentrations (MICS) of Sertaconazole and Miconazole against 107 yeasts, 47 dermatophytes and 4 fungi were determined by a two-fold dilution method.

Candida s.p. = assay: MIC by two-fold dilution, Candida s.p.; assay type: cell-based; details: Candida; 15 strains; read-out: Minimum Inhibitory Concentration
Experimental: as §4

Microsporum canis = assay: MIC by two-fold dilution, Microsporum canis; assay type: cell-based; details: 4 strains, read-out: Minimum Inhibitory Concentration
Experimental: as §4

[3] = Acute toxicity (LD50) in mouse, three administration routes; details: in vivo
Source text: as §3
(§5) Toxicity of Sertaconazole, Microazole and Martin's compounds 1, 2 and 3, as shown below, has been tested by standard methods. Both acute toxicity, subacute toxicity and chronic toxicity were studied
(§6) Oral, intraperitoneal and subcutaneous acute toxicity of sertaconazole and miconazole have been investigated. LD50 in mouse and rat, male and female, were measured.

[4] = Acute toxicity (LD50) in rat, three administration routes; details: in vivo, males
Experimental: as §5, §6

Trichophyton rubrum = assay: Randomized double blind clinical trials, Trichophyton rubrum infection; assay type: in vivo, human; details: 2 % cream (nitrate salts), 28 days treatment
Experimental: (§7) Human clinical trials were performed with Sertaconazole nitrate and Miconazole nitrate acid addition salts. Randomized double blind trials were carried out with 502 patients suffering from cutaneous mycosis as confirmed by microscopic examination and microbiological culture. 247 patients were treated with 2 % Sertaconazole cream and the remaining 255 patients were treated with 2 % Miconazole cream. All patients received scheduled treatment for 28 days and were followed up for an additional 28 days for possible relapses.

Dermatophytes, Others = assay: MIC by two-fold dilution, other dermatophytes; assay type: cell-based; details: 3 strains; read-out: Minimum Inhibitory Concentration
Experimental: as §4

Candida albicans [5] = assay: Vaginal infection by Candida albicans in female mice; assay type: in vivo; details: seven days after infection
Source text: Besides the above in vivo experiments vaginal infection by Candida albicans was studied in female mice. Standard methods were used. […] Similar results were found in experiments where repeated dosages of active compound were used after infection. These in vivo results confirmed the surprising speed of action of Sertaconazole in comparison to the prior art compounds.

[6] = tested on: Scopulariopsis brevi-caulis; assay: MIC by two-fold dilution, Scopulariopsis brevicaulis; assay type: cell-based; details: Scopulariopsis; 4 strains; read-out: Minimum Inhibitory Concentration
Experimental: as §4

cutaneous mycosis = assay: Randomized double blind clinical trials, cutaneous mycosis; details: 2 % cream (nitrate salts)
Experimental: as §7

rats = assay: Prolonged subacute toxicity in rats; assay type: in vivo, rat; details: p.o.
Experimental: (§8) In a study of prolonged subacute toxicity of Miconazole in rats, among other effects, significant hepatomegalias in females with a dosage of under 30 mg/kg p.o. and in males with a dosage of under 60 mg/kg p.o. were observed.

Gram-positive germs = assay: MIC by two-fold dilution, Gram-positive germs; assay type: cell-based; details: 21 strains; read-out: Minimum Inhibitory Concentration
Torulopsis glabrata = assay: MIC by two-fold dilution, Torulopsis glabrata; assay type: cell-based; details: Nakaseomyces glabratus; 10 strains; read-out: Minimum Inhibitory Concentration
Experimental: as §4

[7] = tested on: Trichophyton menta-grophytes; assay: MIC by two-fold dilution, Trichophyton mentagrophytes; assay type: cell-based; details: 30 strains, read-out: Minimum Inhibitory Concentration
Experimental: as §4

Chronic toxicity in rats = assay type: in vivo, rat; details: rat, in vivo; 100 mg/kg or more dosage
Trichophyton rubrus = assay: MIC by two-fold dilution, Trichophyton rubrus; assay type: cell-based; details: 10 strains, read-out: Minimum Inhibitory Concentration
Experimental: as §4

Candida tropicalis = assay: MIC by two-fold dilution, Candida tropicalis; assay type: cell-based; details: read-out: Minimum Inhibitory Concentration
Experimental: as §4

[8] = tested on: Trichophyton mcntagrophytes; assay: Dermal infection in albino female guinea pigs by Trichophyton mentagrophytes; assay type: in vivo, guinea pig; details: for % microbiological healing / Negative Cultures to Total Cultures: 2% cream
Source text: as §3
Dermal infection in albino female guinea pigs by Trichophyton mcntagrophytes has been studied. Animals were distributed in three groups: a) a control group of infected untreated animals; b) a scrtaconazole group of infected and treated animals; and c) a miconazole group of infected and treated animals. Animals were depleted and a 0.4 ml suspension of the microorganism was applied on the depleted area. Treatment with each of the test drugs was made by application of 1 g of 2% cream on the depleted area on the 4th, 5th and 6th day after infection.

[9] = Safe dosage based on the toxicity findings; details: rat, in vivo
Experimental: as §8
Based on these finds a safe dosage for Miconazole is about 10 mg/kg, while a safe dosage for Sertaconzole is about 150 mg/kg, i.e about 15 times higher.

In the case of Clc1ccc(C(Cn2ccnc2)OCc2coc3cc(Cl)cc(Cl)c23)c(Cl)c1 (stereo not shown) [Martin compound 4, reference compound], the MIC (16 microorganisms) is reported as 0.518 µg/mL (≈ 1.14 µM), the LD50 [1] is reported as < 1000 mg/kg and the MIC (C. albicans 32) is reported as 8 µg/mL (≈ 17.5 µM). For the same compound, the MIC (C. pseudotropicalis 21) was 0.03 µg/mL (≈ 0.0658 µM), the MIC (C. albicans ATCC E-10231) was 0.5 µg/mL (≈ 1.1 µM) and the MIC (C. krusei 24; Casitone medium) was 0.5 µg/mL (≈ 1.1 µM). For the same compound, the MIC (C. krusei 24; YNB medium) was 0.5 µg/mL (≈ 1.1 µM), the MIC (C. parapsilosis 19; Sabouraud medium) was 0.5 µg/mL (≈ 1.1 µM) and the MIC (C. parapsilosis 19; YNB medium) was 0.5 µg/mL (≈ 1.1 µM). For the same compound, the MIC (C. albicans 14) was 0.5 µg/mL (≈ 1.1 µM), the MIC (C. tropicalis 25) was 8 µg/mL (≈ 17.5 µM) and the MIC (C. stellatoidea 36232; Casitone medium) was 0.06 µg/mL (≈ 0.132 µM). The MIC (C. stellatoidea 36232; Sabouraud medium) was 0.5 µg/mL (≈ 1.1 µM), the MIC (C. stellatoidea 36232; YNB medium) was 0.5 µg/mL (≈ 1.1 µM) and the MIC (C. albicans 15) was 0.03 µg/mL (≈ 0.0658 µM). It also gave an MIC (C. albicans 31) of 8 µg/mL (≈ 17.5 µM), an MIC (C. guillermondii; Casitone medium) of 0.5 µg/mL (≈ 1.1 µM) and an MIC (C. guillermondii; YNB medium) of 0.5 µg/mL (≈ 1.1 µM).
Clc1ccc(COC(Cn2ccnc2)c2ccc(Cl)cc2Cl)c(Cl)c1 (stereo not shown) [Miconazole, reference compound] gave an MIC (Candida albicans [2]; Candida albicans, 52 strains, read-out: Minimum Inhibitory Concentration) of 10.7 µg/mL (≈ 25.7 µM), an MIC (Candida albicans [2]; a particular Candida albicans strain, read-out: MIC) of 10.7 µg/mL (≈ 25.7 µM) and an MIC (Candida s.p.) of 0.95 µg/mL (≈ 2.28 µM). It also gave an MIC (Microsporum canis) of 2 µg/mL (≈ 4.81 µM), an LD50 ([3]; ip, intraperitoneal) of ~600 mg/kg and an LD50 ([3]; ip, intraperitoneal, males) of 662 mg/kg. For the same compound, the LD50 ([3]; po) was ~2500 mg/kg, the LD50 ([3]; po, males) was 2560 mg/kg and the LD50 ([3]; sc, subcutaneous) was > 5000 mg/kg. For the same compound, the LD50 ([3]; sc, subcutaneous, males) was > 5000 mg/kg, the LD50 ([4]; ip, intraperitoneal) was 1180 mg/kg and the LD50 ([4]; oral) was 920 mg/kg. The LD50 ([4]; sc, subcutaneous) was > 5000 mg/kg, the “effectiveness against Trichophyton rubrum” value (Trichophyton rubrum) was 79% and the MIC (Dermatophytes, Others) was 4 µg/mL (≈ 9.61 µM). The animals healed (Candida albicans [5]) was 12.5%, the MIC [6] was 32 µg/mL (≈ 76.9 µM) and the “cases of contact dermatitis” value (cutaneous mycosis) was 5 cases. For the same compound, the “dosage with significant hepatomegalias” value (rats; females) was “under 30 mg/kg”, the “dosage with significant hepatomegalias” value (rats; males) was “under 60 mg/kg” and the MIC (Gram-positive germs) was 0.88 µg/mL (≈ 2.11 µM). The MIC (Torulopsis glabrata) was 1.1 µg/mL (≈ 2.64 µM), the MIC [7] was 2.8 µg/mL (≈ 6.73 µM) and the mortality (Chronic toxicity in rats) was 32%. The MIC (Trichophyton rubrus) was 0.3 µg/mL (≈ 0.721 µM), the MIC (Candida tropicalis) was 5.6 µg/mL (≈ 13.5 µM) and the “% microbiological healing” value ([8]; 18 days postinfection) was 6%. The “Negative Cultures to Total Cultures” value ([8]; 18 days postinfection) was 3/48, the “% microbiological healing” value ([8]; 25 days postinfection) was 28% and the “Negative Cultures to Total Cultures” value ([8]; 25 days postinfection) was 13/48. For the same compound, the “% microbiological healing” value ([8]; 32 days postinfection) was 44%, the “Negative Cultures to Total Cultures” value ([8]; 32 days postinfection) was 21/48 and the “proportion of animals cured” value ([8]; after 25 days, cream containing 2 % by weight) was “about 1/4”. The NOAEL [9] was ~10 mg/kg.
